# Results: patent US20210139846A1, “ENGINEERED CELLS, AND METHODS OF USING THE SAME” (Board of Supervisors of Louisiana State University and …, priority 2017, published 2021)
# How the values were obtained:
# AdipoR1 = biological target: T1, AdipoR1 (Homo sapiens, UniProt Q96A54); assay: DHA-d5 / AA-d8 uptake by hASCs overexpressing AdipoR1, LC-MS/MS, with adiporon (FIG. 11); assay type: cell-based
# T1 construct: host or cells: human adipose tissue-derived stem cells (hASC); human primary retinal pigment epithelial (ABC) cells
# T1 sequence (Q96A54 1-375): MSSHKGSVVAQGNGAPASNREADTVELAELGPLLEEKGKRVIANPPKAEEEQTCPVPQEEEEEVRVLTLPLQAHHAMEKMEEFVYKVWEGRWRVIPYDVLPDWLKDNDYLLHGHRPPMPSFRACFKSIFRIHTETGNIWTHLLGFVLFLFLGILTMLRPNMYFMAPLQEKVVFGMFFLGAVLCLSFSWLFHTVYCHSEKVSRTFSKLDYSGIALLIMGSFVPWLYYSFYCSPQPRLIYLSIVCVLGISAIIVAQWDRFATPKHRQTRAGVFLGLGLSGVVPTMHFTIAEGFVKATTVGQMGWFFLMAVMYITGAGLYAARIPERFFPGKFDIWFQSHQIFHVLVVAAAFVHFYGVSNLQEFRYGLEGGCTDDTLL
# Experimental: Stable clones of hASCs overexpressing AdipoR1 or mCherry following lentivirus transduction, were incubated overnight in the presence or not of DHA-d5 or AA-d8 (1 μM) and vehicle DMSO with various concentrations of AdipoR1 […] adiporon (1-50 μM). […] Compared to DHA-d5 uptake, levels of AA-d8 were extremely low under these conditions.
# [1] = test system: SD male rats, 2 h of MCAo; assay: 2 h MCAo by intraluminal suture, DHA 5 mg/kg IV (FIG. 16-23); assay type: in vivo
# Experimental: (11-12 weeks old); Model: 2 h of MCAo by intraluminal suture; DHA (5 mg/kg) or Saline treatments (IV)—at 3 h from onset of MCAo; BrdU labeling at days 4, 5, 6; Immunohistochemistry on week 2
# [2] = test system: human adipose tissue derived stem cells; assay: Chemical transdifferentiation of stem cells into neurons with DHA (FIG. 12); assay type: cell-based; settings: 24 hours, induction media containing DHA (504) vs induction medium alone
# Experimental: Images were taken 24 hours following incubation in the presence of induction media containing or not containing DHA (504).
# ischemic stroke = assay: DHA administered icv after ischemic stroke (FIG. 7); assay type: in vivo, rats
# [3] = test system: neurons and neural stem/progenitor cells; settings: cited from earlier work
# [4] = test system: SD male rats, 2 h of MCAo; settings: DHA systemically injected; reference 8; cited from earlier work
# [5] = DHA 5 mg/kg IV, immunohistochemistry on week 2
structure (smiles),measurement,setting,value
CCCCC/C=C\C/C=C\C/C=C\C/C=C\CCCC(=O)O [AA-d8],levels of AA-d8 compared to DHA-d5 uptake,AdipoR1; 1 μM AA-d8 overnight in hASCs,extremely low
"CC/C=C\C/C=C\C/C=C\C/C=C\C/C=C\C/C=C\CCC(=O)O [DHA, 4,7,10,13,16,19-docosahexanoic acid]",total neurologic deficits,[1]; DHA 5 mg/kg IV at 3 h from onset of MCAo vs saline,improved
same,cortical infarct volume,"[1]; DHA 5 mg/kg IV, histopathology",reduced
same,total infarct volume,"[1]; DHA 5 mg/kg IV, histopathology",reduced
same,"BrdU+/DCX+ cells in cortex, SVZ and DG",[1]; [5],increased
same,"BrdU+/NeuN+ cells in cortex, SVZ and DG",[1]; [5],increased
same,"BrdU+/ki-67+ cells in cortex, SVZ and DG",[1]; [5],increased
same,"neurogenesis in the DG, SVZ and peri-infarct area","[1]; proliferation, differentiation and migration of neural stem cells",increased
same,infarct volume,"[1]; rat, in vivo",reduced
same,neurobehavioral recovery,"[1]; rat, in vivo",promoted
same,percentage of morphologically mature neurons,[2],strongly increased
same,ischemic brain damage,"ischemic stroke; DHA at the site where GESC would be administered (icv), 7 days",reduced
same,behavioral functions,"ischemic stroke; DHA icv, 7 days",improves
same,protection by DHA administered icv,ischemic stroke; icv,protective
same,"neurite growth, synaptogenesis, synaptic protein expression and synaptic functions in hippocamal neuron","[3]; Cao, D et al., 2009",promotes
same,neurite outgrowth,"[3]; DHA supplementation, L. Dagai et al., 2009",accelerated
same,neuronal differentiation of neural stem cells,"[3]; M. Katakura et al., 2009",enhances
same,number of neurons derived from neural stem/progenitor cells,"[3]; Nobuyuki Sakayoti et al., 2011",increases
same,neuroprotection against ischemic stroke,[4],neuroprotective
O=C(COc1ccc(C(=O)c2ccccc2)cc1)NC1CCN(Cc2ccccc2)CC1 [adiporon],effect on DHA-d5 uptake of AdipoR1 transduced cells,"AdipoR1; adiporon 1-50 μM, 1 μM DHA-d5 overnight",further increased
